Results reported in ChEMBL document CHEMBL1129834, “A boronated benzamide as melanoma-seeking agent” (Bioorg Med Chem Lett, 1997).

Legend:
[1] = Compound was evaluated for the biodistribution of tumor-imaging agent in B16 melanoma bearing mice muscle upon intraveneous administration at 2.6 gmol/mice after 3 hour; type: ADME, organism-based, Muscle tissue; conditions: mus sp., in vivo, iv
[2] = Compound was evaluated for the biodistribution of tumor-imaging agent in B16 melanoma bearing mice spleen upon intraveneous administration at 2.6 gmol/mice after 1 hour; type: ADME, organism-based; conditions: mus sp., in vivo, iv
[3] = Compound was evaluated for the biodistribution of tumor-imaging agent in B16 melanoma bearing mice upon intraveneous administration at 2.6 gmol/mice after 1 hour; type: ADME, organism-based; conditions: mus sp., in vivo, iv
[4] = Compound was evaluated for the biodistribution of tumor-imaging agent in B16 melanoma bearing mice upon intraveneous administration at 2.6 gmol/mice after 24 hour; type: ADME, organism-based; conditions: mus sp., in vivo, iv
[5] = Compound was evaluated for the biodistribution of tumor-imaging agent in B16 melanoma bearing mice blood upon intraveneous administration at 2.6 gmol/mice after 1 hour; type: ADME, organism-based; conditions: mus sp., in vivo, iv
[6] = Compound was evaluated for the biodistribution of tumor-imaging agent in B16 melanoma bearing mice blood upon intraveneous administration at 2.6 gmol/mice after 3 hour; type: ADME, organism-based; conditions: mus sp., in vivo, iv
[7] = Compound was evaluated for the biodistribution of tumor-imaging agent in B16 melanoma bearing mice brain upon intraveneous administration at 2.6 gmol/mice after 1 hour; type: ADME, organism-based; conditions: mus sp., in vivo, iv
[8] = Compound was evaluated for the biodistribution of tumor-imaging agent in B16 melanoma bearing mice brain upon intraveneous administration at 2.6 gmol/mice after 3 hour; type: ADME, organism-based; conditions: mus sp., in vivo, iv
[9] = Compound was evaluated for the biodistribution of tumor-imaging agent in B16 melanoma bearing mice kidney upon intraveneous administration at 2.6 gmol/mice after 24 hour; type: ADME, organism-based; conditions: mus sp., in vivo, iv
[10] = Compound was evaluated for the biodistribution of tumor-imaging agent in B16 melanoma bearing mice kidney upon intraveneous administration at 2.6 gmol/mice after 3 hour; type: ADME, organism-based; conditions: mus sp., in vivo, iv
[11] = Compound was evaluated for the biodistribution of tumor-imaging agent in B16 melanoma bearing mice uvea upon intraveneous administration at 2.6 gmol/mice after 3 hour; type: ADME, organism-based, Uveal tract; conditions: mus sp., in vivo, iv
[12] = Compound was evaluated for the biodistribution of tumor-imaging agent in B16 melanoma bearing mice upon intraveneous administration at 2.6 gmol/mice after 3 hour; type: ADME, organism-based; conditions: mus sp., in vivo, iv
[13] = Compound was evaluated for the biodistribution of tumor-imaging agent in B16 melanoma bearing mice uvea upon intraveneous administration at 2.6 gmol/mice after 24 hour; type: ADME, organism-based, Uveal tract; conditions: mus sp., in vivo, iv
[14] = Compound was evaluated for the biodistribution of tumor-imaging agent in B16 melanoma bearing mice liver upon intraveneous administration at 2.6 gmol/mice after 1 hour; type: ADME, organism-based; conditions: mus sp., in vivo, iv
[15] = Compound was evaluated for the biodistribution of tumor-imaging agent in B16 melanoma bearing mice liver upon intraveneous administration at 2.6 gmol/mice after 24 hour; type: ADME, organism-based; conditions: mus sp., in vivo, iv
[16] = Compound was evaluated for the biodistribution of tumor-imaging agent in B16 melanoma bearing mice liver upon intraveneous administration at 2.6 gmol/mice after 3 hour; type: ADME, organism-based; conditions: mus sp., in vivo, iv
[17] = Compound was evaluated for the biodistribution of tumor-imaging agent in B16 melanoma bearing mice lungs upon intraveneous administration at 2.6 gmol/mice after 1 hour; type: ADME, organism-based; conditions: mus sp., in vivo, iv
[18] = Compound was evaluated for the biodistribution of tumor-imaging agent in B16 melanoma bearing mice lungs upon intraveneous administration at 2.6 gmol/mice after 3 hour; type: ADME, organism-based; conditions: mus sp., in vivo, iv
[19] = Compound was evaluated for the biodistribution of tumor-imaging agent in B16 melanoma bearing mice muscle upon intraveneous administration at 2.6 gmol/mice after 1 hour; type: ADME, organism-based, Muscle tissue; conditions: mus sp., in vivo, iv
[20] = Compound was evaluated for the biodistribution of tumor-imaging agent in B16 melanoma bearing mice muscle upon intraveneous administration at 2.6 gmol/mice after 24 hour; type: ADME, organism-based, Muscle tissue; conditions: mus sp., in vivo, iv
[21] = Partition coefficient (logP); type: physicochemical; conditions: octanol/water
[22] = Acute toxicity of compound in OF1 mice; type: organism-based; conditions: OF1, mouse, in vivo
[23] = Compound was evaluated for the biodistribution of tumor-imaging agent in B16 melanoma bearing mice spleen upon intraveneous administration at 2.6 gmol/mice after 3 hour; type: ADME, organism-based; conditions: mus sp., in vivo, iv
[24] = Compound was evaluated for the biodistribution of tumor-imaging agent in B16 melanoma bearing mice kidney upon intraveneous administration at 2.6 gmol/mice after 1 hour; type: ADME, organism-based; conditions: mus sp., in vivo, iv

CCN(CC)CCNC(=O)c1ccc(B2OCCCO2)cc1
Injected dose/g [1]: 1.96%
Injected dose/g [2]: 2.61%
Injected dose/g [3]: 3.26%
Injected dose/g [4]: 0.52%
Injected dose/g [5]: 2.53%
Injected dose/g [6]: 0.97%
Injected dose/g [7]: 0.19%
Injected dose/g [8]: 0.18%
Injected dose/g [9]: 0.13%
Injected dose/g [10]: 3.38%
Injected dose/g [11]: 2.78%
Injected dose/g [12]: 2.89%
Injected dose/g [13]: 0.84%
Injected dose/g [14]: 5.11%
Injected dose/g [15]: 0.22%
Injected dose/g [16]: 4.76%
Injected dose/g [17]: 1.91%
Injected dose/g [18]: 1.24%
Injected dose/g [19]: 2.95%
Injected dose/g [20]: 0.04%
logP [21]: -1
LD50 [22]: 1860 µmol/kg
Injected dose/g [23]: 1.53%
Injected dose/g [24]: 4.88%
